Assay [1] concerns anti-biotin antibody (ABA).
Procedure: The adsorption of fluorescent biotin-conjugated liposomes and FITC-Biotin to the surface of the PMMA cuvettes was studied by measuring the amount of fluorescence remaining on the surface of the cuvette after exposure to a known concentration of fluorescent species and a washing step with PBS. One milliliter of solution containing fluorescent species was injected into the inlet of the cuvette 27 with a syringe, and the solution was allowed to stand in the cuvette for either half an hour or an hour, depending on the experiment. Unbound fluorescent molecules were then washed from the cuvette by pumping PBS with a peristaltic pump at a flow rate of 1 /min. After washing, the shutter 22 on the laser 21 was opened for a few seconds, until the digital reading on the photomultiplier tube counter 30 stabilized. This was recorded as the fluorescent signal in kilo-counts per second (KCPS) coming from the interface. […] This was done when it was necessary to investigate the role of the washing step in reducing the measured fluorescence signal. […]
The maximum signal obtained for adsorbed vesicles, at very high molar concentrations of liposomes, is approximately 1250 KCPS. The quantity λL is estimated by taking the measured fluorescence at a given set of concentrations, and dividing by the maximum signal value for full surface coverage.
The target in assay [2] is anti-biotin antibody (ABA). Kind of assay: C^14-biotin adsorption to antibody-coated PMMA slides (radioimmunoassay isotherm, Langmuir fit). Type of assay: binding. The protocol:
The adsorption of biotin to the antibody-coated PMMA surface was studied by exposing the surfaces to C^14 -labeled biotin, washing the slides, and determining the amount of radioactivity remaining on the solid support at different initial concentrations of biotin in the bulk solution. Four PMMA slides (1.5 cm×1.5 cm) coated with antibody, as described above, were incubated in 10 ml of C^14 -biotin PBS solutions in the concentration range from 10^-8 to 10^-4 M. After a ninety minute exposure, the slides were dipped quickly in 200 ml of deionized water to remove unbound C^14 -biotin from the surface. The radioactivity of the slides was determined by scintillation counting. […] As a control, the non-specific adsorption of C^14 -biotin to PMMA alone and to BSA-covered PMMA was tested the same way, using a C^14 -biotin concentration of 10^-4 M.
The ability of the antibody-covered surface to bind biotin based on the results of radioimmunoassays is indicated by the isotherm shown in FIG. 3. The number of moles of biotin bound per unit area of surface is shown as a function of the initial concentration of biotin to which the surface was exposed. […] Assuming that each antibody molecule adsorbed to the surface can bind two biotin molecules, this corresponds to 0.88×10^-12 moles of active ABA/cm^2. […]
The quantity av is the ratio (A/V) which equals 1.88 cm^-1 in these experiments. […]

Another assay has as its system Anti-Biotin Antibody. The following applies: half-hour exposure, ten-minute PBS wash.

On to `O=C(O)CCCC[C@@H]1SC[C@@H]2NC(=O)N[C@@H]21` [biotin], for which the “free biotin concentration at which the decrease in fluorescence commences (experimental)” value in assay [1] (liposomes 0.01 or 0.03 mg/ml) is given as “approximately 2×10^-5 M”. Moreover, in assay [1] (predicted from KB and KL), the “free biotin concentration at which fluorescence should decrease significantly (simple Langmuir model)” value is listed as “approximately 4×10^-7 M”. The Kd in assay [2] (Langmuir isotherm best fit, PMMA coated with ABA, blocked with BSA, PBS, read-out: equilibrium binding constant K (KB) of biotin on adsorbed ABA (converted)) was 400 nM. The “saturation level of biotin bound per unit area of surface” value in assay [2] (biotin concentrations greater than 10^-4 M) is given as “approximately 1.8×10^-12 moles of biotin/cm^2”.
As to “fluorescein isothiocyanate-biotin [FITC-Biotin]”, the “association constant of FITC-Biotin to ABA (in words)” value with Anti-Biotin Antibody is given as “very low association constant”.

Values taken from patent US5494803A, “Immunodiagnostic assay using liposomes carrying labels thereof on outer liposome surface” (North Carolina State University, priority 1994, dated 1996).
